# Target: T1, TDO2 (Homo sapiens, UniProt P48775)
# T1 construct: decreased levels of NFK in SW48 cells (high TDO expressing cells)
# Test: TDO2 cell assay (NFK GreenScreen, SW48 cells)
# Type: cell-based
# Details: SW48 cells (high TDO expressing), 200 uM tryptophan, 24 hours; Table 3; read-out: TDO2 Cell Fluor EC50
# T1 sequence (P48775 whole entry): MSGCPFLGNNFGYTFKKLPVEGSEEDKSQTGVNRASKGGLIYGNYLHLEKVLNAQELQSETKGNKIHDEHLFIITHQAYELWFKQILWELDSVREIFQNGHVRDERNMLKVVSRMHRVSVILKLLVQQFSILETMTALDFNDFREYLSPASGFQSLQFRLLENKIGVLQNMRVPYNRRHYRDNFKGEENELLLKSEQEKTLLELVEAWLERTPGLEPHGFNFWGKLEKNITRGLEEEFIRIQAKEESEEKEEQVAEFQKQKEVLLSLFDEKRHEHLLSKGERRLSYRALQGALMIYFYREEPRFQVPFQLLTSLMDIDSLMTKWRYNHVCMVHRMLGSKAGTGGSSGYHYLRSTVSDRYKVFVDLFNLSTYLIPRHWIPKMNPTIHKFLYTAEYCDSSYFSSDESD
row,EC50 [µM],SMILES
1,3,"N#CCN1CC[C@@H]([C@@H]2c3ccccc3-c3cncn32)[C@H](O)C1 (single isomer, unassigned) [Example 27d]"
2,> 25,"NS(=O)(=O)N1CC(O)C(C2c3ccccc3-c3cncn32)C1 (single isomer, unassigned) [Example 28a]"
3,4.4,"NS(=O)(=O)N1CC(O)C(C2c3ccccc3-c3cncn32)C1 (single isomer, unassigned) [Example 28b]"
4,> 25,"NS(=O)(=O)N1CC(O)C(C2c3ccccc3-c3cncn32)C1 (single isomer, unassigned) [Example 28c]"
5,> 25,"NS(=O)(=O)N1CC(O)C(C2c3ccccc3-c3cncn32)C1 (single isomer, unassigned) [Example 28d]"
6,> 25,"O=c1cccc2n1CCC(C1c3ccccc3-c3cncn31)C2O (single isomer, unassigned) [Example 29a, 1-hydroxy-2-(5H-imidazo[5,1-a]isoindol-5-yl)-3,4-dihydro-1H-quinolizin-6(2H)-one]"
7,0.67,"O=c1cccc2n1CCC(C1c3ccccc3-c3cncn31)C2O (single isomer, unassigned) [Example 29b, 1-hydroxy-2-(5H-imidazo[5,1-a]isoindol-5-yl)-3,4-dihydro-1H-quinolizin-6(2H)-one]"
8,24,"O=c1cccc2n1CCC(C1c3ccccc3-c3cncn31)C2O (single isomer, unassigned) [Example 29c, 1-hydroxy-2-(5H-imidazo[5,1-a]isoindol-5-yl)-3,4-dihydro-1H-quinolizin-6(2H)-one]"
9,5.7,"O=c1cccc2n1CCC(C1c3ccccc3-c3cncn31)C2O (single isomer, unassigned) [Example 29d, 1-hydroxy-2-(5H-imidazo[5,1-a]isoindol-5-yl)-3,4-dihydro-1H-quinolizin-6(2H)-one]"
10,0.44,"O=c1cccc2n1CCC(C1c3ccccc3-c3cncn31)C2O (single isomer, unassigned) [Example 29e, 1-hydroxy-2-(5H-imidazo[5,1-a]isoindol-5-yl)-3,4-dihydro-1H-quinolizin-6(2H)-one]"
11,> 25,"O=c1cccc2n1CCC(C1c3ccccc3-c3cncn31)C2O (single isomer, unassigned) [Example 29f, 1-hydroxy-2-(5H-imidazo[5,1-a]isoindol-5-yl)-3,4-dihydro-1H-quinolizin-6(2H)-one]"
12,0.26,"OC1COCC1C1c2ccc(F)cc2-c2cncn21 (single isomer, unassigned) [Example 30a]"
13,15,"OC1COCC1C1c2ccc(F)cc2-c2cncn21 (single isomer, unassigned) [Example 30b]"
14,2.1,"OC1COCC1C1c2ccc(F)cc2-c2cncn21 (single isomer, unassigned) [Example 30c]"
15,> 25,"OC1COCC1C1c2ccc(F)cc2-c2cncn21 (single isomer, unassigned) [Example 30d]"
16,17,"OC1c2cccnc2CCC1C1c2ccccc2-c2cncn21 (single isomer, unassigned) [Example 31c]"
17,> 25,"OC1c2cccnc2CCC1C1c2ccccc2-c2cncn21 (single isomer, unassigned) [Example 31d]"
18,1.1,"OC1c2cccnc2CCC1C1c2ccccc2-c2cncn21 (single isomer, unassigned) [Example 31e]"
19,0.082,"OC1c2cccnc2CCC1C1c2ccccc2-c2cncn21 (single isomer, unassigned) [Example 31f]"
20,5.2,"N[C@@H]1COC[C@@H]1[C@H]1c2ccccc2-c2cncn21 (single isomer, unassigned) [Example 32c]"
21,> 25,"OC1COCCC1C1c2ccc(F)cc2-c2cncn21 (single isomer, unassigned) [Example 33a]"
22,3.5,"OC1COCCC1C1c2ccc(F)cc2-c2cncn21 (single isomer, unassigned) [Example 33c]"
23,> 25,"OC1COCCC1C1c2ccc(F)cc2-c2cncn21 (single isomer, unassigned) [Example 33d]"
24,1.8,"O[C@@H]1CCOC[C@H]1[C@H]1c2ccc(F)cc2-c2cncn21 (single isomer, unassigned) [Example 34a]"
25,> 25,"O[C@@H]1CCOC[C@H]1[C@H]1c2ccc(F)cc2-c2cncn21 (single isomer, unassigned) [Example 34b]"
26,> 25,"CC1(O)CCC1C1c2ccccc2-c2cncn21 (single isomer, unassigned) [Example 35a]"
27,0.45,"CC1(O)CCC1C1c2ccccc2-c2cncn21 (single isomer, unassigned) [Example 35b]"
28,> 25,"CC1(O)CCC1C1c2ccccc2-c2cncn21 (single isomer, unassigned) [Example 35c]"

row,EC50 [µM],SMILES
1,0.35,"CC1(O)CCC1C1c2ccccc2-c2cncn21 (single isomer, unassigned) [Example 35d]"
2,1.3,"CS(=O)(=O)c1ccc2c(c1)CCC(C1c3ccccc3-c3cncn31)C2O (single isomer, unassigned) [Example 36a]"
3,0.058,"CS(=O)(=O)c1ccc2c(c1)CCC(C1c3ccccc3-c3cncn31)C2O (single isomer, unassigned) [Example 36b]"
4,7.4,"CS(=O)(=O)c1ccc2c(c1)CCC(C1c3ccccc3-c3cncn31)C2O (single isomer, unassigned) [Example 36c]"
5,3.8,"CS(=O)(=O)c1ccc2c(c1)CCC(C1c3ccccc3-c3cncn31)C2O (single isomer, unassigned) [Example 36d]"
6,2.7,"CS(=O)(=O)c1ccc2c(c1)CCC(C1c3ccccc3-c3cncn31)C2O (single isomer, unassigned) [Example 36e]"
7,0.14,"CS(=O)(=O)c1ccc2c(c1)CCC(C1c3ccccc3-c3cncn31)C2O (single isomer, unassigned) [Example 36f]"
8,19,"CS(=O)(=O)c1ccc2c(c1)CCC(C1c3ccccc3-c3cncn31)C2O (single isomer, unassigned) [Example 36g]"
9,0.98,"CS(=O)(=O)c1ccc2c(c1)CCC(C1c3ccccc3-c3cncn31)C2O (single isomer, unassigned) [Example 36h]"
10,16,"O=S1(=O)CC(O)C(C2c3ccccc3-c3cncn32)C1 (single isomer, unassigned) [Example 38a]"
11,0.15,"O=S1(=O)CC(O)C(C2c3ccccc3-c3cncn32)C1 (single isomer, unassigned) [Example 38b]"
12,22,"O=S1(=O)CC(O)C(C2c3ccccc3-c3cncn32)C1 (single isomer, unassigned) [Example 38c]"
13,3.8,"O=S1(=O)CC(O)C(C2c3ccccc3-c3cncn32)C1 (single isomer, unassigned) [Example 38d]"
14,3.7,"NS(=O)(=O)N1CC[C@@H]([C@H]2c3ccccc3-c3cncn32)[C@H](O)C1 (single isomer, unassigned) [Example 39b]"
15,> 25,"NS(=O)(=O)N1CC[C@@H]([C@@H]2c3ccccc3-c3cncn32)[C@H](O)C1 (single isomer, unassigned) [Example 39c]"
16,0.056,"NS(=O)(=O)N1CC[C@@H]([C@@H]2c3ccccc3-c3cncn32)[C@H](O)C1 (single isomer, unassigned) [Example 39d]"
17,6.4,"CCS(=O)(=O)N1CC(O)C(C2c3ccccc3-c3cncn32)C1 (single isomer, unassigned) [Example 40a]"
18,16,"CCS(=O)(=O)N1CC(O)C(C2c3ccccc3-c3cncn32)C1 (single isomer, unassigned) [Example 40b]"
19,> 25,"CCS(=O)(=O)N1CC(O)C(C2c3ccccc3-c3cncn32)C1 (single isomer, unassigned) [Example 40c]"
20,> 25,"CCS(=O)(=O)N1CC(O)C(C2c3ccccc3-c3cncn32)C1 (single isomer, unassigned) [Example 40d]"
21,> 25,"CC(C)(C)OC(=O)N1CC2(CC(C3c4ccccc4-c4cncn43)C2O)C1 (single isomer, unassigned) [Example 41a, tert-butyl 7-hydroxy-6-(5H-imidazo[1,5-b]isoindol-5-yl)-2-azaspiro[3.3]heptane-2-carboxylate]"
22,0.8,"CC(C)(C)OC(=O)N1CC2(CC(C3c4ccccc4-c4cncn43)C2O)C1 (single isomer, unassigned) [Example 41b, tert-butyl 7-hydroxy-6-(5H-imidazo[1,5-b]isoindol-5-yl)-2-azaspiro[3.3]heptane-2-carboxylate]"
23,23,"CC(C)(C)OC(=O)N1CC2(CC(C3c4ccccc4-c4cncn43)C2O)C1 (single isomer, unassigned) [Example 41c, tert-butyl 7-hydroxy-6-(5H-imidazo[1,5-b]isoindol-5-yl)-2-azaspiro[3.3]heptane-2-carboxylate]"
24,3.2,"CC(C)(C)OC(=O)N1CC2(CC(C3c4ccccc4-c4cncn43)C2O)C1 (single isomer, unassigned) [Example 41d, tert-butyl 7-hydroxy-6-(5H-imidazo[1,5-b]isoindol-5-yl)-2-azaspiro[3.3]heptane-2-carboxylate]"
25,0.62,"CC(C)(C)OC(=O)N1CC2(CC(C3c4ccccc4-c4cncn43)C2O)C1 (single isomer, unassigned) [Example 41e, tert-butyl 7-hydroxy-6-(5H-imidazo[1,5-b]isoindol-5-yl)-2-azaspiro[3.3]heptane-2-carboxylate]"
26,17,"CC(C)(C)OC(=O)N1CC2(CC(C3c4ccccc4-c4cncn43)C2O)C1 (single isomer, unassigned) [Example 41f, tert-butyl 7-hydroxy-6-(5H-imidazo[1,5-b]isoindol-5-yl)-2-azaspiro[3.3]heptane-2-carboxylate]"
27,> 25,"CC(C)(C)OC(=O)N1CC2(CC(C3c4ccccc4-c4cncn43)C2O)C1 (single isomer, unassigned) [Example 41g, tert-butyl 7-hydroxy-6-(5H-imidazo[1,5-b]isoindol-5-yl)-2-azaspiro[3.3]heptane-2-carboxylate]"

# Source: US12583858B2 (Genentech, Inc., priority 2015, dated 2026)
